These results are taken from patent publication US20240335406A1, “COMPOUNDED COMPOSITIONS AND METHODS FOR TREATING PAIN” (CMPD Licensing, LLC, priority 2016, published 2024).

Counter-ions that a name gives are not always drawn.

This series in a line: Potency test of the compounded topical solution of Example 1 (HPLC with UV/photodiode array detector). In kind it is physicochemical. As to conditions: for Measured: concentration of analyte in compounded topical solution of Example 1; for Potency: measured vs reported concentration, compounded topical solution of Example 1. The method, then:
Diclofenac sodium topical solution, 1.5% (w/w), includes approximately 16.05 mg diclofenac sodium per mL. Accordingly, approximately 0.9167 mL of diclofenac sodium topical solution, 1.5% (w/w), was measured for every mL of compounded topical solution. […] The measured ingredients where combined in a beaker. The beaker was placed on a magnetic stirring plate and a stir bar was placed in the beaker and rotated at a speed to create a small vortex for 5 minutes. The stirred solution was then placed in containers.

The compound `O=C(O)Cc1ccccc1Nc1c(Cl)cccc1Cl` [Diclofenac Sodium] came in with a Measured of 1.51% and a Potency of 103%.
Turning to `CCN(CC)CC(=O)Nc1c(C)cccc1C` [Lidocaine HCl, Lidocaine Hydrochloride], the Measured was determined as 0.336% and the Potency was found to be 101%.
